Broadly, the IC50 is the concentration needed to halve the response being measured.

Values after ≈ are worked out from the molar mass of the structure shown.

The text below walks through data of patent publication US7122543B2, “Substituted benzoic acid derivatives having NF-κB inhibiting action” (Daiichi Suntory Pharma Co., Ltd., priority 2001, dated 2006).

For the first data set, the system named is NF-κB. Description: NF-κB luciferase reporter assay in A549/NF-κBLuc cells stimulated with IL-1β. The class given is cell-based, human. The note with it: A549/NF-κBLuc cells; compound added 1 hour before IL-1β, 3 hours more incubation; luciferase activity as index. How it is done: Effects of Compounds on Human Lung Cancer A549 Cells (A549/NF-κBLuc) Stably Transfected with Luciferase Plasmid (pNFκB-Luc, Stratagene, U.S.A.) Having the NF-κB Regulatory Sequence
Using lipofectamine (Lifetech Oriental K.K., Tokyo), pNFκB-Luc were cotransfected with pSV2neo (Clontech, U.S.A.) into A549 cells (ATCC CCL185) according to the conventional method, and A549/NF-κBLuc stably transfected with pNFκB-Luc were selected by adding G418 sulfate (1 mg/ml, Lifetech Oriental K.K.) to the culture medium.
A compound prepared in an Example was added to A549/NF-κBLuc, then IL-1β which was able to activate the NF-κB was added at 1 hour thereafter and incubation was continued for 3 hours more. It has been made clear by using a luciferase activity as an index that the compound obtained in the Example suppresses the activation of NF-κB by stimulated with IL-1β.
In general terms: A reporter such as luciferase makes a cellular process visible.
In turn, `COC1=C(OC)C(=O)C(Cc2ccc(-c3ccncc3)c(C(=O)N3CCCCC3)c2)=C(C)C1=O` [Example 58a, N-[5-(5,6-Dimethoxy-3-methyl-1,4-benzoquinon-2-yl)methyl-2-(4-pyridyl)benzoyl]piperidine] registered an IC50 value of 15 µg/mL (≈ 32.6 µM).

For `COC1=C(OC)C(=O)C(Cc2ccc(-c3ccncc3)c(C(=O)N3CCCCC3)c2)=C(C)C1=O` [Example 58b, N-[5-(5,6-Dimethoxy-3-methyl-1,4-benzoquinon-2-yl)methyl-2-(4-pyridyl)benzoyl]piperidine], the IC50 value was 45 µg/mL (≈ 97.7 µM).

The data set is the same for the next values; noted with them: A549/NF-κBLuc cells; word printed in the IC50 column instead of a value.
With `COc1c(C)c(Cc2ccc(C(=O)O)c(-c3cccnc3)c2)c(OC)c(OC)c1OC` [Example 12, 4-(3,4,5,6-Tetramethoxy-2-methylbenzyl)-2-(3-pyridyl) benzoic acid], the “IC50 value (result in words)” value is “toxic”.

The data set is the same for the next values; noted with them: Homo sapiens, A549, A549/NF-κBLuc cells; compound added 1 hour before IL-1β, 3 hours more incubation; luciferase activity as index.
`COc1c(C)c(Cc2ccc(-c3cccnc3)c(C(=O)O)c2)c(OC)c(OC)c1OC` [Example 14, 5-(3,4,5,6-Tetramethoxy-2-methylbenzyl)-2-(3-pyridyl)benzoic acid] gave a 50% inhibitory concentration (IC50) greater than 15 µg/mL.

For the compound `COc1c(C)c(Cc2ccc(-c3ccncc3)c(C(=O)O)c2)c(OC)c(OC)c1OC` [Example 15, 5-(3,4,5,6-Tetramethoxy-2-methylbenzyl)-2-(4-pyridyl)benzoic acid], the IC50 is greater than 15 µg/mL.

For `COc1cccc(-c2ccc(Cc3c(C)c(OC)c(OC)c(OC)c3OC)cc2C(=O)O)c1` [Example 17, 5-(3,4,5,6-Tetramethoxy-2-methylbenzyl)-2-(3-methoxyphenyl)benzoic acid], the 50% inhibitory concentration (IC50) was greater than 15 µg/mL.

For `COc1ccccc1-c1ccc(Cc2c(C)c(OC)c(OC)c(OC)c2OC)cc1C(=O)O` [Example 18, 5-(3,4,5,6-Tetramethoxy-2-methylbenzyl)-2-(2-methoxyphenyl)benzoic acid], the IC50 was greater than 15 µg/mL.

Regarding `COC1=C(OC)C(=O)C(Cc2ccc(C(=O)O)c(-c3ccccc3)c2)=C(C)C1=O` [Example 35, 4-(5,6-Dimethoxy-3-methyl-1,4-benzoquinon-2-yl)methyl-2-phenylbenzoic acid], the concentration for half-maximal inhibition (IC50) was greater than 15 µg/mL.

In turn, `COC1=C(OC)C(=O)C(Cc2ccc(C(=O)O)c(-c3cccnc3)c2)=C(C)C1=O` [Example 36, 4-(5,6-Dimethoxy-3-methyl-1,4-benzoquinon-2-yl)methyl-2-(3-pyridyl)benzoic acid] showed an IC50 greater than 15 µg/mL.

Turning to `COC1=C(OC)C(=O)C(Cc2ccc(-c3ccccc3)c(C(=O)O)c2)=C(C)C1=O` [Example 37, 5-(5,6-Dimethoxy-3-methyl-1,4-benzoquinon-2-yl)methyl-2-phenylbenzoic acid], the IC50 is greater than 45 µg/mL.

Consider `COC1=C(OC)C(=O)C(Cc2ccc(-c3cccnc3)c(C(=O)O)c2)=C(C)C1=O` [Example 38, 5-(5,6-Dimethoxy-3-methyl-1,4-benzoquinon-2-yl)methyl-2-(3-pyridyl)benzoic acid], for which the concentration for half-maximal inhibition (IC50) is greater than 45 µg/mL.

Consider `COC1=C(OC)C(=O)C(Cc2ccc(-c3ccncc3)c(C(=O)O)c2)=C(C)C1=O` [Example 39, 5-(5,6-Dimethoxy-3-methyl-1,4-benzoquinon-2-yl)methyl-2-(4-pyridyl)benzoic acid], for which the IC50 was greater than 30 µg/mL.

Take `COC1=C(OC)C(=O)C(Cc2ccc(-c3ccc(OC)cc3)c(C(=O)O)c2)=C(C)C1=O` [Example 40, 5-(5,6-Dimethoxy-3-methyl-1,4-benzoquinon-2-yl)methyl-2-(4-methoxyphenyl)benzoic acid]: the 50% inhibitory concentration (IC50) is greater than 45 µg/mL.

With `COC1=C(OC)C(=O)C(Cc2ccc(C(=O)Nc3ccc(C(F)(F)F)cc3)c(-c3ccccc3)c2)=C(C)C1=O` [Example 45, N-[4-(5,6-Dimethoxy-3-methyl-1,4-benzoquinon-2-yl)methyl-2-phenylbenzoyl]-4-trifluoromethyl-aniline], the IC50 was greater than 30 µg/mL.

For the compound `COC1=C(OC)C(=O)C(Cc2ccc(C(=O)N3CCOCC3)c(-c3cccnc3)c2)=C(C)C1=O` [Example 47, N-[4-(5,6-Dimethoxy-3-methyl-1,4-benzoquinon-2-yl)methyl-2-(3-pyridyl)benzoyl]morpholine], it took 24 µg/mL to reach half-maximal inhibition (IC50).

Consider `COC1=C(OC)C(=O)C(Cc2ccc(C(=O)Nc3ccc(C(F)(F)F)cc3)c(-c3cccnc3)c2)=C(C)C1=O` [Example 48, N-[4-(5,6-Dimethoxy-3-methyl-1,4-benzoquinon-2-yl)methyl-2-(3-pyridyl)benzoyl]-4-trifluoromethylaniline], for which the 50% inhibitory concentration (IC50) is greater than 30 µg/mL.

Turning to `COC1=C(OC)C(=O)C(Cc2ccc(C(=O)Nc3ccc(OC)cc3)c(-c3cccnc3)c2)=C(C)C1=O` [Example 49, N-[4-(5,6-Dimethoxy-3-methyl-1,4-benzoquinon-2-yl)methyl-2-(3-pyridyl)benzoyl]-4-methoxy-aniline], the IC50 worked out at 24 µg/mL.

`COC1=C(OC)C(=O)C(Cc2ccc(-c3ccccc3)c(C(=O)N3CCOCC3)c2)=C(C)C1=O` [Example 51, N-[5-(5,6-Dimethoxy-3-methyl-1,4-benzoquinon-2-yl)methyl-2-phenylbenzoyl]morpholine] yielded a 50% inhibitory concentration (IC50) greater than 30 µg/mL.

`COC1=C(OC)C(=O)C(Cc2ccc(-c3ccccc3)c(C(=O)Nc3ccc(OC)cc3)c2)=C(C)C1=O` [Example 52, N-[5-(5,6-Dimethoxy-3-methyl-1,4-benzoquinon-2-yl)methyl-2-phenylbenzoyl]-4-methoxyaniline] displayed a half-maximal inhibitory concentration (IC50) greater than 45 µg/mL.

Compound `COC1=C(OC)C(=O)C(Cc2ccc(-c3ccccc3)c(C(=O)Nc3ccc(C(F)(F)F)cc3)c2)=C(C)C1=O` [Example 53, N-[5-(5,6-Dimethoxy-3-methyl-1,4-benzoquinon-2-yl)methyl-2-phenylbenzoyl]-4-trifluoromethylaniline] yielded a half-inhibitory concentration (IC50) greater than 30 µg/mL.

In turn, `COC1=C(OC)C(=O)C(Cc2ccc(-c3cccnc3)c(C(=O)N3CCCCC3)c2)=C(C)C1=O` [Example 54, N-[5-(5,6-Dimethoxy-3-methyl-1,4-benzoquinon-2-yl)methyl-2-(3-pyridyl)benzoyl]piperidine] returned an IC50 of 15 µg/mL.

`COC1=C(OC)C(=O)C(Cc2ccc(-c3cccnc3)c(C(=O)N3CCOCC3)c2)=C(C)C1=O` [Example 55, N-[5-(5,6-Dimethoxy-3-methyl-1,4-benzoquinon-2-yl)methyl-2-(3-pyridyl)benzoyl]morpholine] gave a 50% inhibitory concentration (IC50) greater than 45 µg/mL.

As for `COC1=C(OC)C(=O)C(Cc2ccc(-c3cccnc3)c(C(=O)Nc3ccc(OC)cc3)c2)=C(C)C1=O` [Example 56, N-[5-(5,6-Dimethoxy-3-methyl-1,4-benzoquinon-2-yl)methyl-2-(3-pyridyl)benzoyl]-4-methoxy-aniline], the IC50 is greater than 45 µg/mL.

As for `COC1=C(OC)C(=O)C(Cc2ccc(-c3cccnc3)c(C(=O)Nc3ccc(C(F)(F)F)cc3)c2)=C(C)C1=O` [Example 57, N-[5-(5,6-Dimethoxy-3-methyl-1,4-benzoquinon-2-yl)methyl-2-(3-pyridyl)benzoyl]-4-trifluoromethylaniline], the half-maximal inhibitory concentration (IC50) is greater than 30 µg/mL.

Compound `COC1=C(OC)C(=O)C(Cc2ccc(-c3ccncc3)c(C(=O)N3CCOCC3)c2)=C(C)C1=O` [Example 59, N-[5-(5,6-Dimethoxy-3-methyl-1,4-benzoquinon-2-yl)methyl-2-(4-pyridyl)benzoyl]morpholine] had an IC50 greater than 45 µg/mL.

Compound `COC1=C(OC)C(=O)C(Cc2ccc(-c3ccncc3)c(C(=O)Nc3ccc(OC)cc3)c2)=C(C)C1=O` [Example 60a, N-[5-(5,6-Dimethoxy-3-methyl-1,4-benzoquinon-2-yl)methyl-2-(4-pyridyl)benzoyl]-4-methoxyaniline] had an IC50 greater than 30 µg/mL.

For `COC1=C(OC)C(=O)C(Cc2ccc(-c3ccncc3)c(C(=O)Nc3ccc(OC)cc3)c2)=C(C)C1=O.Cl` [Example 60b, N-[5-(5,6-Dimethoxy-3-methyl-1,4-benzoquinon-2-yl)methyl-2-(4-pyridyl)benzoyl]-4-methoxyaniline], the IC50 is greater than 30 µg/mL.

Regarding `COC1=C(OC)C(=O)C(Cc2ccc(-c3ccncc3)c(C(=O)Nc3ccc(C(F)(F)F)cc3)c2)=C(C)C1=O` [Example 61, N-[5-(5,6-Dimethoxy-3-methyl-1,4-benzoquinon-2-yl)methyl-2-(4-pyridyl)benzoyl]-4-trifluoromethylaniline], the 50% inhibitory concentration (IC50) was greater than 30 µg/mL.

For the compound `COC1=C(OC)C(=O)C(Cc2ccc(-c3ccc(OC)cc3)c(C(=O)Nc3ccc(OC)cc3)c2)=C(C)C1=O` [Example 64, N-[5-(5,6-Dimethoxy-3-methyl-1,4-benzoquinon-2-yl)methyl-2-(4-methoxyphenyl]benzoyl)-4-methoxyaniline], the half-inhibitory concentration (IC50) was found to be 12 µg/mL.

Regarding `COC1=C(OC)C(=O)C(Cc2ccc(-c3cccc(OC)c3)c(C(=O)N3CCCCC3)c2)=C(C)C1=O` [Example 65, N-[5-(5,6-Dimethoxy-3-methyl-1,4-benzoquinon-2-yl)methyl-2-(3-methoxyphenyl)benzoyl]-piperidine], 40 µg/mL corresponded to half-maximal inhibition (IC50).

Regarding `COC1=C(OC)C(=O)C(Cc2ccc(-c3cccc(OC)c3)c(C(=O)N3CCOCC3)c2)=C(C)C1=O` [Example 66, N-[5-(5,6-Dimethoxy-3-methyl-1,4-benzoquinon-2-yl)methyl-2-(3-methoxyphenyl)benzoyl]-morpholine], the IC50 came out at 42 µg/mL.

Still in this data set, the particulars now being: Homo sapiens, A549, same value printed in parentheses in μM; A549/NF-κBLuc cells, IL-1β stimulation, luciferase activity.
For `COC1=C(OC)C(=O)C(Cc2ccc(-c3cccnc3)c(C(=O)N3CCCCC3)c2)=C(C)C1=O` [Example 54, N-[5-(5,6-Dimethoxy-3-methyl-1,4-benzoquinon-2-yl)methyl-2-(3-pyridyl)benzoyl]piperidine], the IC50 is 33 µM.

Consider `COC1=C(OC)C(=O)C(Cc2ccc(-c3ccc(OC)cc3)c(C(=O)Nc3ccc(OC)cc3)c2)=C(C)C1=O` [Example 64, N-[5-(5,6-Dimethoxy-3-methyl-1,4-benzoquinon-2-yl)methyl-2-(4-methoxyphenyl]benzoyl)-4-methoxyaniline], for which the half-maximal inhibitory concentration (IC50) was found to be 23 µM.

On to `COC1=C(OC)C(=O)C(Cc2ccc(-c3cccc(OC)c3)c(C(=O)N3CCCCC3)c2)=C(C)C1=O` [Example 65, N-[5-(5,6-Dimethoxy-3-methyl-1,4-benzoquinon-2-yl)methyl-2-(3-methoxyphenyl)benzoyl]-piperidine], for which the half-inhibitory concentration (IC50) is 82 µM.

On to `COC1=C(OC)C(=O)C(Cc2ccc(-c3cccc(OC)c3)c(C(=O)N3CCOCC3)c2)=C(C)C1=O` [Example 66, N-[5-(5,6-Dimethoxy-3-methyl-1,4-benzoquinon-2-yl)methyl-2-(3-methoxyphenyl)benzoyl]-morpholine], for which the half-inhibitory concentration (IC50) came to 85 µM.

The same data set, now with this note: same value printed in parentheses in μM; A549/NF-κBLuc cells, IL-1β stimulation, luciferase activity.
On to `COC1=C(OC)C(=O)C(Cc2ccc(-c3ccncc3)c(C(=O)N3CCCCC3)c2)=C(C)C1=O` [Example 58a, N-[5-(5,6-Dimethoxy-3-methyl-1,4-benzoquinon-2-yl)methyl-2-(4-pyridyl)benzoyl]piperidine], for which the IC50 was found to be 30 µM.

As to `COC1=C(OC)C(=O)C(Cc2ccc(-c3ccncc3)c(C(=O)N3CCCCC3)c2)=C(C)C1=O` [Example 58b, N-[5-(5,6-Dimethoxy-3-methyl-1,4-benzoquinon-2-yl)methyl-2-(4-pyridyl)benzoyl]piperidine], the IC50 worked out at 81 µM.
